The target of test [1] is T1, horseradish peroxidase (HRP) tagged delF508-CFTR (Homo sapiens, UniProt P13569, DEL508-508).
T1 construct: expressed in transfected cells
The test can be described thus: Measurement of delF508-CFTR-HRP surface expression in CFBE41o- cells.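 For DelF508-CFTR-HRP Amax %: percent efficacy relative to reference corrector lumacaftor.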 It is filed as cell-based. Particulars: delF508-CFTR-HRP surface expression, CFBE41o- cells; for Emax: read-out: DelF508-CFTR-HRP Amax %; for EC50: read-out: DelF508-CFTR-HRP EC50. The procedure, abridged:
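Surface-trafficked delF508-CFTR detected via extracellular HRP tag, read as luminescence from a membrane-impermeant substrate in CFBE41o- cells. Cells pre-induced 48h with 500 ng/mL doxycycline, then exposed 24h at 37° C to a 10-point, 3-fold dilution series from 10 μM (DMSO ≤0.5%). Triplicate dose-responses fitted logistically for EC50 after per-plate normalization; fold change versus reference compound.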

The next test deals with T2, delF508-CFTR (Homo sapiens, UniProt P13569, DEL508-508).
T2 construct: functional activity of the CFTR channel (Chloride ion transport) in patient derived primary human bronchial epithelial cells; host or cells: patient-derived primary human bronchial epithelial cells (delF508-CFTR)
Nature of the test: Measurement of delF508-CFTR functional activity in primary human bronchial epithelial cells (HBECs) using Multi-Transepithelial Clamp Circuit (MTECC-24) assay. It is filed as cell-based. Particulars: primary CF HBECs; for MTECC24 CFHBEC- Amax %: test compound added 24h before assay plus potentiator, relative to reference combination (2 μM corrector + 0.5 μM potentiator); for EC50: test compound added 24h before assay, in the presence of potentiator, mean of at least two replicates, read-out: MTECC24 CFHBEC- EC50. The procedure, abridged:
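Compound tested as 10-point, 1-in-3 concentration response (0.1% or 0.2% DMSO), 24 h basolateral pre-incubation, then re-added to both sides. MTECC-24 measured Ieq in ALI-differentiated primary delF508 bronchial cells after amiloride, forskolin activation, potentiator and INH-172 block; data normalized to DMSO baseline, EC50 fitted.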

Usually EC50 stands for the concentration giving half of the maximal effect.

Where a name gives a salt, the structure may show the parent alone.

T1 sequence (P13569 with tags, fused parts or gaps DEL508-508): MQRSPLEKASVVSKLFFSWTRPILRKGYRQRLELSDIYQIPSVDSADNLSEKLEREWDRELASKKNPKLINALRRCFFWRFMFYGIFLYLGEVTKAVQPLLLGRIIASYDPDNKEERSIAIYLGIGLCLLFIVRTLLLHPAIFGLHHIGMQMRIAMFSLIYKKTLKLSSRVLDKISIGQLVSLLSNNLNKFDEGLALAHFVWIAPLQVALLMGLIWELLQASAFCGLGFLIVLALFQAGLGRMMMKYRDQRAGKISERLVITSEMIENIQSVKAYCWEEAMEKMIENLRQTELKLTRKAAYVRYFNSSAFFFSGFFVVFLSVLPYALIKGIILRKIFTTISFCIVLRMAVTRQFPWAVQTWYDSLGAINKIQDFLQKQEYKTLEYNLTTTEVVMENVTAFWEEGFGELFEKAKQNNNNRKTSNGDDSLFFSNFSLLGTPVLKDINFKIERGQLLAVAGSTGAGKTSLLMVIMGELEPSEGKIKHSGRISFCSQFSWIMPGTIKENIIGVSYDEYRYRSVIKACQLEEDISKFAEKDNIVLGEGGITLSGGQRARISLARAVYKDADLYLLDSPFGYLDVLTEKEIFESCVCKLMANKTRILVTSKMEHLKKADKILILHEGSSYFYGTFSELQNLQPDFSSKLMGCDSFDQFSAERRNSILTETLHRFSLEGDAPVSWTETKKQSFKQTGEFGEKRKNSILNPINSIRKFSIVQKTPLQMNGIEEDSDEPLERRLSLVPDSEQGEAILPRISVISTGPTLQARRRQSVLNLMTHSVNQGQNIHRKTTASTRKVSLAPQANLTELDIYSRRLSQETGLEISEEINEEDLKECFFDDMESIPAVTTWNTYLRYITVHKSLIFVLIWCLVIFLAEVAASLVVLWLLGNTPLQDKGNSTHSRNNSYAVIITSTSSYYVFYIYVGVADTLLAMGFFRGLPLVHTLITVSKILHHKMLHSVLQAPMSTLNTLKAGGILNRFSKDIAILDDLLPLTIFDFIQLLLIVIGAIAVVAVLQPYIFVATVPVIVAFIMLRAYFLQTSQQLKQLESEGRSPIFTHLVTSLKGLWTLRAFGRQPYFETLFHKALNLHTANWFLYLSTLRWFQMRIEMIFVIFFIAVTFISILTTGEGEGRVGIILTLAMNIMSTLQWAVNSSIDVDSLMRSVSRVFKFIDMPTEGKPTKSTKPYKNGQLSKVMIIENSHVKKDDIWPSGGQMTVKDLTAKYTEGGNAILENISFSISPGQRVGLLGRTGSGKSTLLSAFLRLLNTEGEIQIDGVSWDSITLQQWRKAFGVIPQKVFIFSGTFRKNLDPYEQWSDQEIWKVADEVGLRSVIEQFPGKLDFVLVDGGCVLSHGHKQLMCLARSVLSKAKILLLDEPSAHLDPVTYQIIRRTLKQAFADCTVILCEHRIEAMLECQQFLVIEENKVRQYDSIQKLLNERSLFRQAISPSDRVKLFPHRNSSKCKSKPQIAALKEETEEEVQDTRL
T2 sequence (P13569 with tags, fused parts or gaps DEL508-508): as above

In the case of `CCOC(=O)C1(C)CCN(c2cccc(S(=O)(=O)Nc3ccc(C(F)(F)F)c(-c4cc(F)ccc4C)n3)n2)CC1` [Example 251, ethyl 1-(6-(N-(6-(5-fluoro-2-methylphenyl)-5-(trifluoromethyl)pyridin-2-yl)sulfamoyl)pyridin-2-yl)-4-methylpiperidine-4-carboxylate], in test [1], the Emax was found to be 894% and the EC50 came to 1.45 µM. Besides, at delF508-CFTR, the “MTECC24 CFHBEC- Amax %” value was found to be 61.2% and the concentration giving a half-maximal response (EC50) stood at 0.0032 µM.
Taken in the same sequence, the figures for `Cc1ccc(F)cc1-c1nc(NS(=O)(=O)c2cccc(N3CCNCC3)n2)ccc1Cl` [Example 193, N-(5-chloro-6-(5-fluoro-2-methylphenyl)pyridin-2-yl)-6-(piperazin-1-yl)pyridine-2-sulfonamide hydrochloride] were 385%, 3.92 µM, 81.2% and 0.178 µM.
Regarding `Cc1ccccc1-c1nc(NS(=O)(=O)c2cccc(O[C@@H]3COC[C@]3(C)O)n2)ccc1C(F)(F)F` (single isomer, unassigned) [Example 294], in test [1], the Emax was found to be 641% and the concentration for a half-maximal effect (EC50) was 2.36 µM. On delF508-CFTR, the “MTECC24 CFHBEC- Amax %” value is given as 81.9% and the half-maximal effective concentration (EC50) came to 0.011 µM.
For the compound `Cc1cccc(C)c1-c1nc(NS(=O)(=O)c2cccc(N[C@H]3C[C@@](C)(O)C3)n2)ccc1Cl` [Example 285, N-[5-chloro-6-(2,6-dimethylphenyl)pyridin-2-yl]-6-{[(1r,3s)-3-hydroxy-3-methylcyclobutyl]amino}pyridine-2-sulfonamide], in test [1], the EC50 was determined as 1.24 µM. Besides, at delF508-CFTR, the “MTECC24 CFHBEC- Amax %” value is on record as 74.1% and the concentration giving a half-maximal response (EC50) was determined as 0.0189 µM.
Take `O=S(=O)(Nc1ccc(C(F)(F)F)c(-c2ccccc2Cl)n1)c1cccc(N2CC(O)C2)n1` [Example 222, N-(6-(2-chlorophenyl)-5-(trifluoromethyl)pyridin-2-yl)-6-(3-hydroxyazetidin-1-yl)pyridine-2-sulfonamide]: in test [1], the Emax is 427% and the EC50 stood at 1.71 µM. Further, on delF508-CFTR, the “MTECC24 CFHBEC- Amax %” value is recorded as 61.1% and the EC50 was 0.0106 µM.
Taken in the same sequence, the figures for `Cc1c(F)cccc1-c1nc(NS(=O)(=O)c2cccc(N3CCC(C)(C(=O)O)CC3)n2)ccc1C(F)(F)F` [Example 263, 1-(6-(N-(6-(3-fluoro-2-methylphenyl)-5-(trifluoromethyl)pyridin-2-yl)sulfamoyl)pyridin-2-yl)-4-methylpiperidine-4-carboxylic Acid] were 481%, 2.87 µM, 54.4% and 0.0083 µM.
`Cc1ccccc1-c1nc(NS(=O)(=O)c2cccc(N3CCCC(C)(C(=O)O)C3)n2)ccc1C(F)(F)F` (stereo not drawn) [Example 337, 3-methyl-1-(6-{[6-(2-methylphenyl)-5-(trifluoromethyl)pyridin-2-yl]sulfamoyl}pyridin-2-yl)piperidine-3-carboxylic Acid]: the figures for the 50% effective concentration (EC50) (in test [1]; at delF508-CFTR) were 2.25 µM and 0.00272 µM, respectively. Also, the “MTECC24 CFHBEC- Amax %” value on delF508-CFTR was found to be 51.5%.
Regarding `COc1ccc(Cl)c(-c2nc(NS(=O)(=O)c3cccc(N4CC(O)C4)n3)ccc2C(F)(F)F)c1` [Example 226, N-(6-(2-chloro-5-methoxyphenyl)-5-(trifluoromethyl)pyridin-2-yl)-6-(3-hydroxyazetidin-1-yl)pyridine-2-sulfonamide], in test [1], the Emax was 721% and the half-maximal effective concentration (EC50) is 2.4 µM. Further, on delF508-CFTR, the “MTECC24 CFHBEC- Amax %” value is 83.5% and the concentration giving a half-maximal response (EC50) was 0.0129 µM.
Taken in the same sequence, the figures for `Cc1cccc(C)c1-c1nc(NS(=O)(=O)c2cccc(N)n2)ccc1Cl` [Example 11, 6-amino-N-(5-chloro-6-(2,6-dimethylphenyl)pyridin-2-yl)pyridine-2-sulfonamide] were 579%, 1.35 µM, 94.3% and 0.0136 µM.
On to `Cc1ccc(F)cc1-c1nc(NS(=O)(=O)c2cccc(N3CC4CCC3CN4)n2)ccc1C(F)(F)F` (stereo not drawn) [Example 201, 6-(2,5-diazabicyclo[2.2.2]octan-2-yl)-N-(6-(5-fluoro-2-methylphenyl)-5-(trifluoromethyl)pyridin-2-yl)pyridine-2-sulfonamide Hydrochloride], for which, in test [1], the Emax stood at 570% and the concentration giving a half-maximal response (EC50) worked out at 2.62 µM. Moreover, at delF508-CFTR, the “MTECC24 CFHBEC- Amax %” value is reported as 75.9% and the concentration for a half-maximal effect (EC50) is 0.135 µM.
With `Cc1c(F)cccc1-c1nc(NS(=O)(=O)c2cccc(N3CCN(C(C)(C)C)CC3)n2)ccc1C(F)(F)F` [Example 142, 6-(4-(tert-butyl)piperazin-1-yl)-N-(6-(3-fluoro-2-methylphenyl)-5-(trifluoromethyl)pyridin-2-yl)pyridine-2-sulfonamide], in test [1], the Emax stood at 418% and the half-maximal effective concentration (EC50) is 2.63 µM. Also, at delF508-CFTR, the “MTECC24 CFHBEC- Amax %” value is listed as 63.7% and the EC50 is 0.0052 µM.
On to `Cc1cccc(C)c1-c1nc(NS(=O)(=O)c2cccnc2N)ccc1Cl` [Example 74, 2-amino-N-(5-chloro-6-(2,6-dimethylphenyl)pyridin-2-yl)pyridine-3-sulfonamide], for which, in test [1], the Emax is 158% and the EC50 was determined as 2.58 µM. At delF508-CFTR, the “MTECC24 CFHBEC- Amax %” value came out at 67.3% and the concentration giving a half-maximal response (EC50) amounted to 0.283 µM.
Taken in the same sequence, the figures for `Cc1ccccc1-c1nc(NS(=O)(=O)c2ccc(C)c(N)n2)ccc1C(F)(F)F` [Example 36, 6-amino-5-methyl-N-(6-(o-tolyl)-5-(trifluoromethyl)pyridin-2-yl)pyridine-2-sulfonamide] were 390%, 2.1 µM, 67.6% and 0.0259 µM.
For `Cc1ccccc1-c1nc(NS(=O)(=O)c2cccc(N3C[C@@H]4C[C@H]3CN4)n2)ccc1C(F)(F)F` [Example 203, 6-((1S,4S)-2,5-diazabicyclo[2.2.1]heptan-2-yl)-N-(6-(o-tolyl)-5-(trifluoromethyl)pyridin-2-yl)pyridine-2-sulfonamide hydrochloride], in test [1], the Emax worked out at 298% and the EC50 stood at 2.98 µM. Moreover, on delF508-CFTR, the “MTECC24 CFHBEC- Amax %” value is listed as 80.9% and the 50% effective concentration (EC50) was determined as 0.0233 µM.
Regarding `Cc1cccc(C)c1-c1nc(NS(=O)(=O)c2ccnc(N)c2)ccc1C(F)(F)F` [Example 25, 2-amino-N-(6-(2,6-dimethylphenyl)-5-(trifluoromethyl)pyridin-2-yl)pyridine-4-sulfonamide], in test [1], the Emax worked out at 482% and the concentration for a half-maximal effect (EC50) was determined as 1.06 µM. On delF508-CFTR, the “MTECC24 CFHBEC- Amax %” value is 94.2% and the half-maximal effective concentration (EC50) was 0.0145 µM.
With `Cc1cccc(C)c1-c1nc(NS(=O)(=O)c2cccc(O[C@H]3CC[C@@H](C(=O)O)CC3)n2)ccc1Cl` [Example 129, (1s,4s)-4-((6-(N-(5-chloro-6-(2,6-dimethylphenyl)pyridin-2-yl)sulfamoyl)pyridin-2-yl)oxy)cyclohexane-1-carboxylic Acid], the EC50 in test [1] came out at 1.72 µM. Also, at delF508-CFTR, the “MTECC24 CFHBEC- Amax %” value turned out to be 54.8% and the EC50 is 0.0195 µM.
Regarding `Cc1cccc(C)c1-c1nc(NS(=O)(=O)c2ccnc(N)c2)ccc1Cl` [Example 4, 2-amino-N-(5-chloro-6-(2,6-dimethylphenyl)pyridin-2-yl)pyridine-4-sulfonamide], in test [1], the Emax came to 632% and the EC50 was 0.912 µM. Further, at delF508-CFTR, the “MTECC24 CFHBEC- Amax %” value is reported as 52.0% and the EC50 was 0.0408 µM.
Taken in the same sequence, the figures for `Cc1c(F)cccc1-c1nc(NS(=O)(=O)c2cccc(N3CC(O)C3)n2)ccc1Cl` [Example 232, N-(5-chloro-6-(3-fluoro-2-methylphenyl)pyridin-2-yl)-6-(3-hydroxyazetidin-1-yl)pyridine-2-sulfonamide] were 349%, 1.7 µM, 72.3% and 0.0319 µM.
Consider `Cc1ccccc1-c1nc(NS(=O)(=O)c2cccc(N3CCN(C(=O)OC(C)(C)C)[C@@H](CO)C3)n2)ccc1C(F)(F)F` [Example 164, tert-butyl (R)-2-(hydroxymethyl)-4-(6-(N-(6-(o-tolyl)-5-(trifluoromethyl)pyridin-2-yl)sulfamoyl)pyridin-2-yl)piperazine-1-carboxylate], for which, in test [1], the Emax was found to be 578% and the EC50 came out at 1.06 µM. At delF508-CFTR, the “MTECC24 CFHBEC- Amax %” value came out at 74.3% and the concentration for a half-maximal effect (EC50) came to 0.0495 µM.
Taken in the same sequence, the figures for `Nc1cccc(S(=O)(=O)Nc2ccc(Cl)c(-c3cccc(C(F)(F)F)c3)n2)n1` [Example 73, 6-amino-N-(5-chloro-6-(3-(trifluoromethyl)phenyl)pyridin-2-yl)pyridine-2-sulfonamide] were 163%, 4.24 µM, 64.2% and 0.135 µM.
Turning to `CN[C@H]1CCN(c2cccc(S(=O)(=O)Nc3ccc(C(F)(F)F)c(-c4ccccc4C)n3)n2)C1` [Example 122, (S)-6-(3-(methylamino)pyrrolidin-1-yl)-N-(6-(o-tolyl)-5-(trifluoromethyl)pyridin-2-yl)pyridine-2-sulfonamide Hydrochloride], in test [1], the Emax was 385% and the EC50 was determined as 2.69 µM. For the same compound, at delF508-CFTR, the “MTECC24 CFHBEC- Amax %” value was 81.8% and the EC50 turned out to be 0.0271 µM.
